Measured values taken from ChEMBL document CHEMBL2040771, “Discovery of a potent inhibitor of anaplastic lymphoma kinase with in vivo antitumor activity” (ACS Med Chem Lett, 2010).
Calls of active or inactive are those of the source. The rule behind the calls is not given here.

What was measured:
[1] = biological target: Serine/threonine-protein kinase 32B (Homo sapiens) (UniProt Q9NY57); assay: Inhibition of YANK2 at 1 uM
[2] = Tmax in Sprague-Dawley rat at 5 mg/kg, po; assay type: ADME, organism-based; design: dose 5 mg/kg, route oral; settings: in vivo
[3] = Half life in SCID mouse at 1 mg/kg, iv; assay type: ADME, organism-based; design: dose 1 mg/kg, route intravenous; settings: in vivo
[4] = Antitumor activity against ALK-positive human SUP-M2 cells xenografted in SCID mouse assessed as partial tumor regression at 30 mg/kg, po bid after 12 days; assay type: functional
[5] = biological target: T1, ALK tyrosine kinase receptor (Homo sapiens, UniProt Q9UM73); assay: Inhibition of NPM-ALK autophosphorylation in human KARPAS299 cells; assay type: cell-based; settings: karpas-299
Target sequence in this assay (Q9UM73 19-1620 limits assumed): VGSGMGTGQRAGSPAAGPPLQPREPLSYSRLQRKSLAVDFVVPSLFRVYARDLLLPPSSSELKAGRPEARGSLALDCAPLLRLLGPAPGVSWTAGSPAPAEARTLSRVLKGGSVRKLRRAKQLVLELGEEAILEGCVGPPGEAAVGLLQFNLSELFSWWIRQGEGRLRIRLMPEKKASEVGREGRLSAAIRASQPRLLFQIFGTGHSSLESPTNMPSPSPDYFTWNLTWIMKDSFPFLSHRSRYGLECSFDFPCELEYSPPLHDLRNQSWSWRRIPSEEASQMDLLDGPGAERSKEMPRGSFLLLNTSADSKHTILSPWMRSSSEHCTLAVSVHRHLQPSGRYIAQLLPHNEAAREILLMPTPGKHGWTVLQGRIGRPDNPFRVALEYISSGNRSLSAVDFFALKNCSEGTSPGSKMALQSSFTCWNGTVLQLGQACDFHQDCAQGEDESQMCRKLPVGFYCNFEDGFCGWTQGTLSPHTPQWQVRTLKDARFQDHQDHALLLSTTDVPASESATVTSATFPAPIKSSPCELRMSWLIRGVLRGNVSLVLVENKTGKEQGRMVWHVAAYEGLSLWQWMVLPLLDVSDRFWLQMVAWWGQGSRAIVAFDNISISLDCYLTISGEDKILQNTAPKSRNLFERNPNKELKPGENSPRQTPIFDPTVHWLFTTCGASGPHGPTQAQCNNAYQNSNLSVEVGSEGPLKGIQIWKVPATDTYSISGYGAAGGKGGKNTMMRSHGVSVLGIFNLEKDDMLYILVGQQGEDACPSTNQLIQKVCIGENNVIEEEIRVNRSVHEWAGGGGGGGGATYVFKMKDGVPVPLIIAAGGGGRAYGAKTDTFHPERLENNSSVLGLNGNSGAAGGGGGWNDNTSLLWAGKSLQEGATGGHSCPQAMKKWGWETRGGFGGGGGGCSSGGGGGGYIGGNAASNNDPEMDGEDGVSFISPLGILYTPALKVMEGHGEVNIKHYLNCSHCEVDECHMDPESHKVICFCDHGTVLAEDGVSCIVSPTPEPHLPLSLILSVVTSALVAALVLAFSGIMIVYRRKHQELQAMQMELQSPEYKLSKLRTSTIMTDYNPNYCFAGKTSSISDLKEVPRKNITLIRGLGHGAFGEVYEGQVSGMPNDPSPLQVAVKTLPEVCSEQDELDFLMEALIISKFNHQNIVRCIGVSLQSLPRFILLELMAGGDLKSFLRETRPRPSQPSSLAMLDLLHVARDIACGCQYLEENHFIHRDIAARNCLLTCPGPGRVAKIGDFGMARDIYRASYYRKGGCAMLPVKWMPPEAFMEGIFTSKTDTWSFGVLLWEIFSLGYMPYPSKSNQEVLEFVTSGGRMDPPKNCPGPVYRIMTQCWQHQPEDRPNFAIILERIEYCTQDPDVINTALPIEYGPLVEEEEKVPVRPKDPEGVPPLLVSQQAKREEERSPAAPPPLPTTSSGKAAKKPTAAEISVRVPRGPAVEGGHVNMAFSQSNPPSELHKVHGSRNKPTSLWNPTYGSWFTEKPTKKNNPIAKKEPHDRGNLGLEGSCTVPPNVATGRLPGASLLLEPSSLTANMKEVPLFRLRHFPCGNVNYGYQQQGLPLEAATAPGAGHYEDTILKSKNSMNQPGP

[6] = test system: Epidermal growth factor receptor (Homo sapiens), P00533 [L858R]; assay: Inhibition of EGFR L858R mutant at 1 uM; assay type: protein assay
[7] = Drug uptake in tumor lysates in SCID mouse xenografted with ALK-positive human SUP-M2 cells at 55 mg/kg, po bid for 12 days; assay type: ADME, organism-based, Neoplasm; design: dose 55 mg/kg, route oral; settings: read-out: Drug uptake
[8] = test system: Mast/stem cell growth factor receptor Kit (Homo sapiens), P10721 [D816V]; assay: Inhibition of KIT D816V mutant at 1 uM
[9] = Drug uptake in tumor lysates in SCID mouse xenografted with ALK-positive human SUP-M2 cells at 10 mg/kg, po bid for 12 days; assay type: ADME, organism-based, Neoplasm; design: dose 10 mg/kg, route oral; settings: read-out: Drug uptake
SUP-M2 = assay: Induction apoptosis in ALK-positive human SUP-M2 cells assessed as activation of caspase 3/7 by fluorometric assay; assay type: functional, cell-based
Mus musculus [10] = assay: Toxicity in SCID mouse xenografted with human SUP-M2 cells at 30 mg/kg, po BID for 12 days; assay type: organism-based; design: dose 30 mg/kg, route oral; settings: in vivo, 288 h
[11] = biological target: Mitogen-activated protein kinase kinase kinase 5 (Homo sapiens) (UniProt Q99683); assay: Inhibition of ASK1 at 1 uM
[12] = biological target: Platelet-derived growth factor receptor beta (Homo sapiens) (UniProt P09619); assay: Inhibition of PDGFRB at 1 uM
Platelet-derived growth factor receptor beta (Homo sapiens), sequence (P09619 whole entry): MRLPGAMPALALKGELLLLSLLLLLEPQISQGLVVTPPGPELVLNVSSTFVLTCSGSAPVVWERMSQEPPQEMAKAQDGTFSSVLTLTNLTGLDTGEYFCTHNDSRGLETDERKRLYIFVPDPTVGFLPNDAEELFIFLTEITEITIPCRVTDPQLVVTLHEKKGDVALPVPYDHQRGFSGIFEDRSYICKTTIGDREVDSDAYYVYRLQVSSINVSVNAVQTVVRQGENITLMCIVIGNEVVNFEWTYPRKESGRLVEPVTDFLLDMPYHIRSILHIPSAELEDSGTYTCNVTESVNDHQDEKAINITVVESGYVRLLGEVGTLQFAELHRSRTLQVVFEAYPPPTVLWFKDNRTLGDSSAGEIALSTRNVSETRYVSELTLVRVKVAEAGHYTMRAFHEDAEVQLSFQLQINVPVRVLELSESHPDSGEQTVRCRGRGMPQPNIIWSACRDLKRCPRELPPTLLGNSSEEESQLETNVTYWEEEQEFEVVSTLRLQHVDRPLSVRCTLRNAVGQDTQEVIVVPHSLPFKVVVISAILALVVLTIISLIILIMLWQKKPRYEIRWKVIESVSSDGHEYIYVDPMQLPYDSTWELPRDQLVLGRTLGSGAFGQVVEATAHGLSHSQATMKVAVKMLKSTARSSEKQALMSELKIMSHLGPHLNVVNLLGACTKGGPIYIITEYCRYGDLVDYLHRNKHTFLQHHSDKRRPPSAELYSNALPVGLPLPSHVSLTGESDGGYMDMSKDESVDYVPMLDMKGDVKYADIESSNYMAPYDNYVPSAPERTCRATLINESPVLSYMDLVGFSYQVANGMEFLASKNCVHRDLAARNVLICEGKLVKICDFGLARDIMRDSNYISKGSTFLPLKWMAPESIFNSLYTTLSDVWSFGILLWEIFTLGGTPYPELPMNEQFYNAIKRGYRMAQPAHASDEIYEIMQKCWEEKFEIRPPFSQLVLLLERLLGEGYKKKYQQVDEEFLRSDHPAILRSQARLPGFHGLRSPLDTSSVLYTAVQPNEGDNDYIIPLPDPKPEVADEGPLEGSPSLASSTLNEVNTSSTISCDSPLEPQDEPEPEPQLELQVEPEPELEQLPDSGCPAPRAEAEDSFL

[13] = Oral bioavailability in SCID mouse at 10 mg/kg; assay type: ADME, organism-based; settings: in vivo
[14] = biological target: Serine/threonine-protein kinase 33 (Homo sapiens) (UniProt Q9BYT3); assay: Inhibition of STK33 at 1 uM
Serine/threonine-protein kinase 33 (Homo sapiens), sequence (Q9BYT3 whole entry, looked up): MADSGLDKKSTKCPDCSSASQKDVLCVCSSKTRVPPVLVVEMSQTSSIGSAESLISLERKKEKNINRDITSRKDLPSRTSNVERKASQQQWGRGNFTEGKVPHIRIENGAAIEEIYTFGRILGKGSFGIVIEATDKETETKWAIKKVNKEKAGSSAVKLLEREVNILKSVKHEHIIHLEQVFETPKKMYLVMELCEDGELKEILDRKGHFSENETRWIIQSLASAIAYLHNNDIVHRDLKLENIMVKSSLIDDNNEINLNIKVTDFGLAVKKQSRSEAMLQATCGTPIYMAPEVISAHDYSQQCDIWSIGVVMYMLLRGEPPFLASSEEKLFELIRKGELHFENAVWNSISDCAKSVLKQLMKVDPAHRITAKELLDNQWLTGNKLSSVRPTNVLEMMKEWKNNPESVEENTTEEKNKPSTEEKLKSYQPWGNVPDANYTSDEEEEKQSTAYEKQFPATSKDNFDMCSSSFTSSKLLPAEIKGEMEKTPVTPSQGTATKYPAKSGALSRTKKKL

[15] = Plasma concentration in SCID mouse xenografted with ALK-positive human SUP-M2 cells at 30 mg/kg, po bid for 12 days; assay type: ADME, organism-based; design: dose 30 mg/kg, route oral
[16] = biological target: Mitogen-activated protein kinase 9 (Homo sapiens) (UniProt P45984); assay: Inhibition of JNK2 at 0.1 uM
[17] = biological target: Vascular endothelial growth factor receptor 3 (Homo sapiens) (UniProt P35916); assay: Inhibition of FLT4 at 0.1 uM
Vascular endothelial growth factor receptor 3 (Homo sapiens), sequence (P35916 whole entry): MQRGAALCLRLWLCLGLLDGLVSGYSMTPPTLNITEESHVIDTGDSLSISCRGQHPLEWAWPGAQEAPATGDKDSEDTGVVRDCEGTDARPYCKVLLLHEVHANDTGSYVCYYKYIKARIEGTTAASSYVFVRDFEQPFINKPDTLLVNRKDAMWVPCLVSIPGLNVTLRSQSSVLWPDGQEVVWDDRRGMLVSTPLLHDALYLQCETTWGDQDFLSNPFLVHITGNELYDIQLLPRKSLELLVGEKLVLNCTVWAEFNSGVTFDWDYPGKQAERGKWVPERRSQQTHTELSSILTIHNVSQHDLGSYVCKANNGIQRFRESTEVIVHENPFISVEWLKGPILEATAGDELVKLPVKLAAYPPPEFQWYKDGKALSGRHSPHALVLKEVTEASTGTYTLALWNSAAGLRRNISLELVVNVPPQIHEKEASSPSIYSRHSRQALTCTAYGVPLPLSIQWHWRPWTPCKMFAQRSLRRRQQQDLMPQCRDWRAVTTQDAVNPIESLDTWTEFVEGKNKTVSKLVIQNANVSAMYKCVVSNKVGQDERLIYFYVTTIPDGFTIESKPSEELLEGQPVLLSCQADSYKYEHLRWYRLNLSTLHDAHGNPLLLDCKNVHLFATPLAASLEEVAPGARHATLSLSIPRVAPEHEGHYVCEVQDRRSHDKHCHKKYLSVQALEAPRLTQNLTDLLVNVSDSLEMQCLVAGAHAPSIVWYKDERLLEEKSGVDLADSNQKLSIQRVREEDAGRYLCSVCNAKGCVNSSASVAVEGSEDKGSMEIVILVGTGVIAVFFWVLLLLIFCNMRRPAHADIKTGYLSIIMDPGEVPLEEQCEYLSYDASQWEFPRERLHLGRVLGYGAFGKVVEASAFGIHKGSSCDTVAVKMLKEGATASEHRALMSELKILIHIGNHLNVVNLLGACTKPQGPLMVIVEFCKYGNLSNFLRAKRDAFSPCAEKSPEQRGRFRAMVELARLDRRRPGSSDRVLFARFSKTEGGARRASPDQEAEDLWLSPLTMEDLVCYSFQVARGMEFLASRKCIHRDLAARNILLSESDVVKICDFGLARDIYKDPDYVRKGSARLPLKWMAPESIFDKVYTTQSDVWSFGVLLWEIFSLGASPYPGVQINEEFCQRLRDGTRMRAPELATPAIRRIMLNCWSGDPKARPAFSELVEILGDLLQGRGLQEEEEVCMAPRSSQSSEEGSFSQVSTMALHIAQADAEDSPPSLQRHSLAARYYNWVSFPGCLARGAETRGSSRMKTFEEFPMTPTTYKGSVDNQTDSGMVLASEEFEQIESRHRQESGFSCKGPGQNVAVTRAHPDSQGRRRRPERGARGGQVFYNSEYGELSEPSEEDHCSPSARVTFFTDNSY

[18] = biological target: Serine/threonine-protein kinase 3 (Homo sapiens) (UniProt Q13188); assay: Inhibition of MST2 at 0.1 uM
[19] = biological target: Epidermal growth factor receptor (Homo sapiens) (UniProt P04626+P00533+Q15303+P21860); assay: Inhibition of EGFR L747 to E749 deletion, A750P mutant at 0.1 uM; assay type: protein assay
[20] = Inhibition of FLT3 ITD mutant at 0.1 uM
KARPAS-299 = assay: Growth inhibition of ALK-positive human KARPAS299 cells by MTS assay; assay type: functional, cell-based
[21] = biological target: Fibroblast growth factor receptor 4 (Homo sapiens) (UniProt P22455); assay: Inhibition of FGFR4 at 0.1 uM
[22] = biological target: Serine/threonine-protein kinase 33 (Homo sapiens) (UniProt Q9BYT3); assay: Inhibition of STK33 at 0.1 uM
[23] = biological target: Dual specificity mitogen-activated protein kinase kinase 1 (Homo sapiens) (UniProt Q02750); assay: Inhibition of MEK1 at 1 uM
[24] = biological target: T1, ALK tyrosine kinase receptor; assay: Inhibition of NPM-ALK autophosphorylation in human KARPAS299 cells in presence of mouse plasma; assay type: cell-based; settings: karpas-299
Target sequence in this assay (Q9UM73 19-1620 limits assumed): as the sequence (Q9UM73 19-1620 limits assumed) above

Mus musculus [25] = assay: Toxicity in SCID mouse xenografted with human SUP-M2 cells assessed as weight loss at 10 mg/kg, po BID for 12 days; assay type: organism-based; design: dose 10 mg/kg, route oral; settings: in vivo, 288 h
Mus musculus [26] = assay: Toxicity in SCID mouse xenografted with human SUP-M2 cells at 55 mg/kg, po BID for 12 days; assay type: organism-based; design: dose 55 mg/kg, route oral; settings: in vivo, 288 h
[27] = AUC in Sprague-Dawley rat at 5 mg/kg, po; assay type: ADME, organism-based; design: dose 5 mg/kg, route oral; settings: plasma
[28] = biological target: Dual specificity protein kinase TTK (Homo sapiens) (UniProt P33981); assay: Inhibition of TTK at 0.1 uM
[29] = biological target: Mitogen-activated protein kinase 8 (Homo sapiens) (UniProt P45983); assay: Inhibition of JNK1 at 1 uM
Mitogen-activated protein kinase 8 (Homo sapiens), sequence (P45983 whole entry): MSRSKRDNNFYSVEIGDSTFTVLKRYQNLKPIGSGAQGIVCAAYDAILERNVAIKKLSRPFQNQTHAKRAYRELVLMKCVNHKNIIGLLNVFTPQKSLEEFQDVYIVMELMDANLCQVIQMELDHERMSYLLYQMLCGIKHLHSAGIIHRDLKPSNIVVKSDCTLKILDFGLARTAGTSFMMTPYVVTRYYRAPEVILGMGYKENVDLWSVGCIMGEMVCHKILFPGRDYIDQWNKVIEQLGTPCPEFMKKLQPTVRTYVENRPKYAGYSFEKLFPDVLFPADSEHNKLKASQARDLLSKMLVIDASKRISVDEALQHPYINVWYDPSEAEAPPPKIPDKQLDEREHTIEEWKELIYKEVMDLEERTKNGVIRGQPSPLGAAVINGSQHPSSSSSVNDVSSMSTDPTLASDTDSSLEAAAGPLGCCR

[30] = biological target: Vascular endothelial growth factor receptor 3 (Homo sapiens) (UniProt P35916); assay: Inhibition of FLT4 at 1 uM
[31] = Oral bioavailability in beagle dog at 10 mg/kg; assay type: ADME, organism-based, Canis lupus familiaris; settings: in vivo
[32] = test system: Receptor-type tyrosine-protein kinase FLT3 (Homo sapiens), P36888 [D835H]; assay: Inhibition of FLT3 D835H mutant at 0.1 uM
[33] = biological target: Protein-tyrosine kinase 2-beta (Homo sapiens) (UniProt Q14289); assay: Inhibition of PYK2 at 1 uM
[34] = Tmax in beagle dog at 10 mg/kg, po; assay type: ADME, organism-based, Canis lupus familiaris; design: dose 10 mg/kg, route oral; settings: in vivo
[35] = test system: Receptor-type tyrosine-protein kinase FLT3 (Homo sapiens), P36888 [D835Y]; assay: Inhibition of FLT3 D835Y mutant at 0.1 uM
[36] = Plasma clearance in Sprague-Dawley rat at 1 mg/kg, iv by LC/MS/MS analysis; assay type: ADME, organism-based; design: dose 1 mg/kg, route intravenous
Insulin receptor = Insulin receptor (Homo sapiens, UniProt P06213); assay: Inhibition of insulin receptor
[37] = biological target: Cyclin-G-associated kinase (Homo sapiens) (UniProt O14976); assay: Inhibition of GAK at 0.1 uM
[38] = test system: Epidermal growth factor receptor (Homo sapiens), P04626+P00533+Q15303+P21860 [UNDEFINED MUTATION]; assay: Inhibition of EGFR L747 to E749 deletion, A750P mutant at 1 uM; assay type: protein assay
[39] = biological target: Tyrosine-protein kinase Fer (Homo sapiens) (UniProt P16591); assay: Inhibition of FER at 0.1 uM
[40] = biological target: Proto-oncogene tyrosine-protein kinase ROS (Homo sapiens) (UniProt P08922); assay: Inhibition of ROS at 1 uM
[41] = biological target: T1, ALK tyrosine kinase receptor; assay: Inhibition of ALK
[42] = Half life in beagle dog at 1 mg/kg, iv; assay type: ADME, organism-based, Canis lupus familiaris; design: dose 1 mg/kg, route intravenous; settings: in vivo
[43] = Plasma concentration in SCID mouse xenografted with ALK-positive human SUP-M2 cells at 55 mg/kg, po bid for 12 days; assay type: ADME, organism-based; design: dose 55 mg/kg, route oral
[44] = biological target: Platelet-derived growth factor receptor beta (Homo sapiens) (UniProt P09619); assay: Inhibition of PDGFRB at 0.1 uM
[45] = biological target: Dual specificity mitogen-activated protein kinase kinase 4 (Homo sapiens) (UniProt P45985); assay: Inhibition of MEK4 at 1 uM
[46] = Drug uptake in tumor lysates in SCID mouse xenografted with ALK-positive human SUP-M2 cells at 30 mg/kg, po bid for 12 days; assay type: ADME, organism-based, Neoplasm; design: dose 30 mg/kg, route oral; settings: read-out: Drug uptake
[47] = biological target: NUAK family SNF1-like kinase 1 (Homo sapiens) (UniProt O60285); assay: Inhibition of ARK5 at 0.1 uM
[48] = AUC in Sprague-Dawley rat at 1 mg/kg, iv; assay type: ADME, organism-based; design: dose 1 mg/kg, route intravenous; settings: plasma

Work on `CCN1C(=O)CCCc2c1ccc(Nc1ncc(Cl)c(N[C@H]3[C@@H](C(N)=O)[C@@H]4C=C[C@H]3C4)n1)c2OC` yielded an inhibition [1] of 92%, a Tmax [2] of 48 min and a half-life [3] of 18 min. It also gave an Activity [4] of 100%, an IC50 [5] of 45 nM and an inhibition [6] of 92%. It also gave a concentration at 288 h [7] of 1180 ng/g, an inhibition [8] of 99% and a concentration at 288 h [9] of 3560 ng/g. The Activity (SUP-M2) was “Active”, the Activity (Mus musculus [10]) was “Non-toxic” and the inhibition [11] was 99%. For the same molecule, the inhibition [12] was 98%, the bioavailability [13] was 32% and the inhibition [14] was 99%. For the same molecule, the concentration at 288 h [15] was 1500 ng/mL, the inhibition [16] was < 50% and the inhibition [17] was 72%. The inhibition [18] was < 50%, the inhibition [19] was < 50% and the inhibition [20] was < 50%. The EC50 (KARPAS-299) was 200 nM, the inhibition [21] was < 50% and the inhibition [22] was 84%. For the same molecule, the inhibition [23] was 91%, the IC50 [24] was 225 nM and the Activity (Mus musculus [25]) was “Non-toxic”. For the same molecule, the Activity (Mus musculus [26]) was “Non-toxic”, the AUC [27] was 4090 ng·h/mL and the inhibition [28] was 96%. The inhibition [29] was 100%, the inhibition [30] was 100% and the bioavailability [31] was 31%. The inhibition [32] was 85%, the inhibition [33] was 99% and the Tmax [34] was 66 min. For the same molecule, the inhibition [35] was 90%, the clearance [36] was 13 mL/min/kg and the IC50 (Insulin receptor) was 597 nM. For the same molecule, the inhibition [37] was < 50%, the inhibition [38] was 94% and the inhibition [39] was 93%. It also gave an inhibition [40] of 93%, an IC50 [41] of 14 nM and a half-life [42] of 66 min. It also gave a concentration at 288 h [43] of 3700 ng/mL, an inhibition [44] of 66% and an inhibition [45] of 90%. For the same molecule, the concentration at 288 h [46] was 405 ng/g, the inhibition [47] was < 50% and the AUC [48] was 1280 ng·h/mL.
